Laboratory results: patent publication US10183059B2, “Method for treating microbial infection” (GENERAL BIOLOGICALS CORPORATION, priority 2015, dated 2019)

Assays:
[1] = test system: SC5314 strain of Candida albicans; experiment: Intracellular ROS assay (DHE, MitoSOX Red, flow cytometry); format: cell-based; conditions: 0.25 μM, 1 h, 37° C.
Description: The SC5314 strain of Candida albicans (wild type or WT) were grown overnight in YPD broth at 30° C. The overnight culture was then subcultured into fresh YPD medium and grown for 5 h. Cells were harvested by centrifugation, washed twice with 12.5 mM sodium acetate (NaOAc) and resuspended in 12.5 mM NaOAc to a concentration of 1*10^7 cells/ml. The cells were treated with various AMPs (0.25 μM) for 1 h at 37° C. After treatment, cells were washed twice with 12.5 mM NaOAc. Dihydroethidium (DHE) is a superoxide indicator, and MitoSOX Red (MitoSOX) was introduced for selective detection of superoxide in the mitochondria of live cells. The intracellular ROS was measured using DHE (20 μM) staining for 30 min and MitoSOX Red (5 μM) for 60 min in PBS. Fluorescent detection was performed by flow cytometry.

Pseudomonas aeruginosa = experiment: Antimicrobial effect against bacteria (MIC); format: cell-based; conditions: strain PAO1, ATCC 15692
Description: (§1) Wild type (WT) Pseudomonas aeruginosa, Klebsiella pneumoniae, Enterobacter aerogenes, Staphylococcus aureus were cultivated overnight in LB medium at 37° C., then transferred to 5 ml of fresh LB culture broth, cultivated again for another 3 hours. Bacteria were collected by centrifugation, washed with sodium acetate (12.5 mM) twice, redissolved with 12.5 mM sodium acetate until the concentration was 1.5×10^5 cells/ml. Mixed with sequential-diluted anti-bacterial peptides, seeded in different wells of a 96-well plate allowing to react for 1 hour. Then, 20 μl of liquid bacterial mixture was taken out to mix with 780 μl of PBS (Phosphate-buffered saline) to terminate the reaction. 50 μl was then taken out and inoculated on a solid medium, after being cultivated at 30° C. for 24 hours, formed colonies were observed.

Staphylococcus aureus = experiment: Antimicrobial effect against bacteria (MIC); format: cell-based; conditions: strain ATCC 33591
Description: as §1

Klebsiella pneumoniae = experiment: Antimicrobial effect against bacteria (MIC); format: cell-based; conditions: strain CG43
Description: as §1

Enterobacter aerogenes = experiment: Antimicrobial effect against bacteria (MIC); format: cell-based; conditions: strain ATCC 13048
Description: as §1

[2] = test system: Wild type (WT) Candida albicans; experiment: Candidacidal activity against cell suspension, colony count; format: cell-based; conditions: 37° C., 1 hour
Description: Wild type (WT) Candida albicans was cultivated in a YPD medium at 30° C. overnight and then transferred to 5 ml of fresh YPD culture broth, subsequently cultivated for another 5 hours. After being collected by centrifugation, the fungi were washed with sodium acetate (12.5 mM) twice, redissolved with 12.5 mM sodium acetate to yield a fungal concentration of 1.5×10^5 cells/ml. 50 μl of liquid fungal suspension was taken out to be mixed with 50 μl of sequence-diluted antimicrobial peptide and placed in different wells of a 96-well plate, allowing to react (37° C.) for 1 hour (as shown in FIG. 4(A)). Then, 20 μl of fungal liquid mixture was added into 780 μl of PBS to terminate the reaction. Finally, 50 μl was taken out and inoculated on a solid YPD medium, cultivated at 30° C. for 24 hours, then the number of colonies were counted.

[3] = test system: Candida albicans strain SC5314 biofilms; experiment: Biofilm cell viability, XTT reduction assay; format: cell-based; conditions: biofilm cells, 37° C., 1 hr
Description: Candida albicans strain SC5314 was cultivated in a YPD medium overnight and then transferred to a fresh YPD culture broth, diluted until the concentration was 3×10^5 cells/ml. 100 μl of liquid fungal suspension was placed in a 96-well plate for cultivation at 37° C. for 24 hours, formed biofilms were washed with sodium acetate (12.5 mM). Then, sequence-diluted antimicrobial peptides P-113, P-113Du and P-113Tri (0-200 μM) were added, reacted at 37° C. for 1 hour, washed with PBS twice. The cellular activity of the biofilms was determined by using XTT (2,3-bis(2-methoxy-4-nitro-5-sulfophenyl)-2H-tetrazolium-5-carboxanilide) reduction assays to analyze the cell survival rate. To perform this reaction, XTT (0.5 mg/ml) and Menadione (0.5 μM) were dissolved in PBS and then added into a 96-well plate formed by biofilms, reacted at 30° C. for 30 minutes, the optical density was measured at wavelength 490 nm (OD490). The cellular activity of the biofilms was represented as a percentage.

[4] = test system: Wild type (WT) Candida albicans; experiment: Salt and pH tolerance of candidacidal activity; format: cell-based
Description: Wild type (WT) Candida albicans was cultivated in a YPD medium at 30° C. overnight and then transferred to 5 ml of fresh YPD culture broth, cultivated subsequently for another 5 hours. After the fungi were collected by centrifugation, washed with 12.5 mM sodium acetate twice, redissolved with 12.5 mM NaOAc to yield a fungal concentration of 1.5×10^6 cells/ml. Fifty microliters of liquid fungal suspension was taken out to mix with 50 μl of sequentially diluted antimicrobial peptides and placed in different wells of a 96-well plate allowing to react for 1 hour at 37° C. (as shown in FIG. 4(A). Then, 50 μl of liquid fungal mixture was taken out and 450 μl PBS was added to terminate the reaction. Finally, 25 μl was taken out and inoculated on a solid YPD medium.

och1Δ mutant strain = experiment: Susceptibility of och1Δ mutant, CFU; format: cell-based, Candida albicans; conditions: och1Δ versus SN250, 1 h
Description: The SN250 and och1Δ mutant strains were grown overnight in YPD broth at 30° C. The overnight culture was then subcultured into fresh YPD medium and grown for 5 h. Cells were treated with different concentration of peptides for 1 h. After treatment, samples were serially diluted in PBS and 15 μl of each diluent was spotted onto YPD agar plates. Colony-forming units were counted after 24 h incubation at 30° C. The data were represented as the mean values±SD of three independent experiments.

C. dubliniensis = format: cell-based
Description: (§2) The antimicrobial activities against clinical isolates and drug-resistant strains of P-113 and its derived peptides were examined. The present invention evaluated the effect of P-113 on 15 clinical isolates of fungi belonging to the genus Candida (see Table 1). Clinical isolates were cultivated overnight at 30° C. under shaking in a YPD cultural broth (1% yeast extract, 2% peptone and 2% glucose), cells were centrifuged and washed with YPD, then cultivated again in a YPD culture broth allowing to grow for 5 hours (initial optical density at 600 nm [OD600]˜0.5). Cells were washed with PBS and then collected by centrifugation, redissolved in a culture broth (modified RPMI 1640 medium, LYM), the cell concentration was adjusted to ˜0.1 [OD600]/ml and then treated with P-113. After the mixed solution was cultivated under shaking at 37° C. and 5% CO2 for 24 hours, absorbance measurement (OD value) was performed to determine the minimum inhibitory concentration (MIC).

C. parapsilosis = format: cell-based
Description: as §2

[5] = test system: SC5314 strain of Candida albicans; experiment: Effect of cell wall disrupting agents on peptide activity, CFU; format: cell-based; conditions: Proteinase K 1 mg/ml, 30 min
Description: The SC5314 strain of Candida albicans (wild type or WT) were grown overnight in YPD broth at 30° C. The overnight culture was then subcultured into fresh YPD medium and grown for 5 h. Cells were treated with Proteinase K (1 mg/ml) for 30 min or Zymolyase (5 mg/ml) for 1 h at 30° C., followed by reacting with different concentrations of the peptides for 1 h, respectively. After that, samples were serially diluted in phosphate-buffered saline (PBS) and 15 μl of each diluent was spotted onto YPD agar plates. Colony-forming units were counted after incubation at 30° C. for 24 h. The data were represented as the mean values±SD of three independent experiments.

[6] = Circular dichroism secondary structure in 85% TFE, BeStSel analysis; format: physicochemical; conditions: CD analyzed by BeStSel
Description: The present invention utilized a Circular Dichroism Spectrometer (AVIV Company) to observe the secondary structure of the antimicrobial peptides. Circular dichoism spectra of P-113 and its derivatives were recorded over the wavelength range of 195-260 nm with readings every 1 nm by using a quartz cuvette having 1 mm optical path length. Ellipticities were represented as mean residue molar ellipticity (MRE). P-113, P-113Du and P-113Tri were dissolved in 85% trifluoroethanol (TFE) solution.

Compound: C[C@H](N)C(=O)N[C@@H](CCCCN)C(=O)N[C@@H](CCCNC(=N)N)C(=O)N[C@@H](Cc1c[nH]cn1)C(=O)N[C@@H](Cc1c[nH]cn1)C(=O)NCC(=O)N[C@@H](Cc1ccc(O)cc1)C(=O)N[C@@H](CCCCN)C(=O)N[C@@H](CCCNC(=N)N)C(=O)N[C@@H](CCCCN)C(=O)N[C@@H](Cc1ccccc1)C(=O)N[C@@H](Cc1c[nH]cn1)C(=O)N[C@@H](C)C(=O)N[C@@H](CCCCN)C(=O)N[C@@H](CCCNC(=N)N)C(=O)N[C@@H](Cc1c[nH]cn1)C(=O)N[C@@H](Cc1c[nH]cn1)C(=O)NCC(=O)N[C@@H](Cc1ccc(O)cc1)C(=O)N[C@@H](CCCCN)C(=O)N[C@@H](CCCNC(=N)N)C(=O)N[C@@H](CCCCN)C(=O)N[C@@H](Cc1ccccc1)C(=O)N[C@@H](Cc1c[nH]cn1)C(N)=O [P-113Du]
- intracellular ROS formation [1]: induced intracellular ROS formation
- Minimum Inhibitory Concentration (MIC) (Pseudomonas aeruginosa): 3.125 µg/mL
- Minimum Inhibitory Concentration (MIC) (Staphylococcus aureus): 25 µg/mL
- Minimum Inhibitory Concentration (MIC) (Klebsiella pneumoniae): 12.5 µg/mL
- Minimum Inhibitory Concentration (MIC) (Enterobacter aerogenes): 25 µg/mL
- activity for killing fungus compared with P-113 [2]: stronger activity for killing fungus than P-113
- concentration causing 50% reduction in the metabolic activity (50% RMA) [3]: 51.54 µg/mL
- candidacidal activity ([4]; 93.75 mM sodium acetate): potent candidacidal activity
- candidacidal activity ([4]; pH 4.5, 6, and 8): consistent candidacidal activity
- susceptibility of och1Δ mutant to peptide (och1Δ mutant strain): resistant
- Minimum Inhibitory Concentration (C. dubliniensis): 3.10 µg/mL
- Minimum Inhibitory Concentration (C. parapsilosis): 0.78 µg/mL
- candidacidal activity after proteinase K treatment of cells [5]: failed to kill C. albicans
- content of the α-helical secondary structure [6]: 10.6%

Compound: C[C@H](N)C(=O)N[C@@H](CCCCN)C(=O)N[C@@H](CCCNC(=N)N)C(=O)N[C@@H](Cc1c[nH]cn1)C(=O)N[C@@H](Cc1c[nH]cn1)C(=O)NCC(=O)N[C@@H](Cc1ccc(O)cc1)C(=O)N[C@@H](CCCCN)C(=O)N[C@@H](CCCNC(=N)N)C(=O)N[C@@H](CCCCN)C(=O)N[C@@H](Cc1ccccc1)C(=O)N[C@@H](Cc1c[nH]cn1)C(=O)N[C@@H](C)C(=O)N[C@@H](CCCCN)C(=O)N[C@@H](CCCNC(=N)N)C(=O)N[C@@H](Cc1c[nH]cn1)C(=O)N[C@@H](Cc1c[nH]cn1)C(=O)NCC(=O)N[C@@H](Cc1ccc(O)cc1)C(=O)N[C@@H](CCCCN)C(=O)N[C@@H](CCCNC(=N)N)C(=O)N[C@@H](CCCCN)C(=O)N[C@@H](Cc1ccccc1)C(=O)N[C@@H](Cc1c[nH]cn1)C(=O)N[C@@H](C)C(=O)N[C@@H](CCCCN)C(=O)N[C@@H](CCCNC(=N)N)C(=O)N[C@@H](Cc1c[nH]cn1)C(=O)N[C@@H](Cc1c[nH]cn1)C(=O)NCC(=O)N[C@@H](Cc1ccc(O)cc1)C(=O)N[C@@H](CCCCN)C(=O)N[C@@H](CCCNC(=N)N)C(=O)N[C@@H](CCCCN)C(=O)N[C@@H](Cc1ccccc1)C(=O)N[C@@H](Cc1c[nH]cn1)C(N)=O [P-113Tri]
- ROS-inducing ability, rank among peptides [1]: strongest ROS-inducing ability
- intracellular ROS formation [1]: induced intracellular ROS formation
- Minimum Inhibitory Concentration (MIC) (Pseudomonas aeruginosa): 3.125 µg/mL
- Minimum Inhibitory Concentration (MIC) (Staphylococcus aureus): 25 µg/mL
- Minimum Inhibitory Concentration (MIC) (Klebsiella pneumoniae): 6.25 µg/mL
- Minimum Inhibitory Concentration (MIC) (Enterobacter aerogenes): 12.5 µg/mL
- activity for killing fungus compared with P-113 [2]: stronger activity for killing fungus than P-113
- concentration causing 50% reduction in the metabolic activity (50% RMA) [3]: 43.245 µg/mL
- candidacidal activity ([4]; 93.75 mM sodium acetate): potent candidacidal activity
- antifungal activity in the high salt environment ([4]; 62.5 and 93.75 mM): maintained strong antifungal activity
- candidacidal activity ([4]; pH 4.5, 6, and 8): consistent candidacidal activity
- susceptibility of och1Δ mutant to peptide (och1Δ mutant strain): still sensitive
- Minimum Inhibitory Concentration (C. dubliniensis): 3.10 µg/mL
- Minimum Inhibitory Concentration (C. parapsilosis): 0.78 µg/mL
- candidacidal activity after proteinase K treatment of cells [5]: failed to kill C. albicans
- content of the α-helical secondary structure [6]: 21.4%

Compound: LL-37: the control peptide (LLGDFFRKSKEKIGKEFKRIVQRIKDFLRNLVPRTES; Antibacterial peptide LL-37; UniProt P49913 134-170, looked up) [reference compound]
- susceptibility of och1Δ mutant to peptide (och1Δ mutant strain): resistant
- candidacidal activity after proteinase K treatment of cells [5]: can still kill C. albicans cells
